This is an account of results in patent US20260042763A1, “PE[…] POSITIVE […] THE TREATMENT OF IRRITABLE BOWEL SYNDROME AND OTHER AILMENTS OF THE PERIPHERAL NERVOUS SYSTEM” (The Johns Hopkins University, priority 2022, published 2026).

The test addresses T1, human isoforms of GABAA (α3ß2γ2) receptors (Homo sapiens, UniProt P18507+P34903).
T1 construct: expressed in transfected cells
The test is described as follows: Potentiation of GABA-evoked currents at GABAA (α3β2γ2) receptors, automated patch-clamp (QPatch), Example B1. Type of test: cell-based. The note with it: for Emax: Emax of potentiation, read-out: Max %. On the procedure:
The ability of compounds exemplified above to potentiate the effect of GABA on GABAA receptors (α3β2γ2) was determined using one or more of the methods described below.
Ltk cells stably expressing the human isoforms of GABAA (α3ß2γ2) receptors were used together with submaximal GABA concentrations to investigate the modulatory effects of the test items. Cells were incubated at 37° C. in a humidified atmosphere with 5% CO2 (rel. humidity about 95%). The cells were continuously maintained in and passaged in sterile culture flasks containing a 1:1 mixture of Dulbecco's modified eagle medium and nutrient mixture D-MEM/F-12 (1×, liquid, with L-Glutamine), supplemented with 10% fetal bovine serum and 1.0% Penicillin/Streptomycin solution. The complete medium as indicated above was supplemented with neomycin. In general, cells were passaged at a confluence of about 80 to 90%. For electrophysiological measurements cells were harvested at a confluence of about 80 to 90% from sterile culture flasks containing culture complete medium. Cells were transferred as suspension in PBS to the QPatch 16X or QPatch HTX system to the centrifuge/washer directly. Expression of GABA receptor was induced by adding Dexamethasone to the cells for 24 to 48 h before experimentation.
Modulatory effects of the compounds of this disclosure were investigated using cells stably transfected with GABA-activated channels of the GABAA (α3ß2γ2) subtype together with submaximal GABA concentrations. Expression of GABA receptor were induced by adding Dexamethasone to the cells for 24 to 48 h before experimentation. In general, cells were passaged at a confluence of about 80 to 90%. For electrophysiological measurements cells were harvested at a confluence of about 80 to 90% from sterile culture flasks containing culture complete medium. Cells were transferred as suspension in PBS to the QPatch 16X or QPatch HTX system to the centrifuge/washer directly. Cells were incubated at 37° C. in a humidified atmosphere with 5% CO2 (rel. humidity about 95%). The cells were continuously maintained in and passaged in sterile culture flasks containing a 1:1 mixture of Dulbecco's modified eagle medium and nutrient mixture D-MEM/F-12 (1×, liquid, with L-Glutamine), supplemented with 10% foetal bovine serum and 1.0% Penicillin/Streptomycin solution and neomycin. The 1× bath solution was made at least every 5 days out of a sterile 10× bath solution, which had been prepared prior to the experimental start of the present study and stored at 1° C. to 9° C. The final bath solution included Sodium Chloride 137 mM, Potassium Chloride 4 mM, Calcium Chloride 1.8 mM, Magnesium Chloride 1 mM, HEPES 10 mM, D-Glucose 10 mM, pH (NaOH) 7.4. The 1× intracellular solution was thawed every day and includes Potassium Chloride 130 mM, Magnesium Chloride 1 mM, Mg-ATP 5 mM, HEPES 10 mM, EGTA 5 Mm, pH (KOH) 7.2. Automated patch-clamping: Cells were transferred as suspension in serum-free medium to the QPatch HTX system and kept in the cell storage tank during experiments. All solutions applied to cells including the intracellular solution were maintained at room temperature (19° C. to 30° C.). After formation of a Gigaohm seal between the patch electrodes and transfected individual Ltk cells were ruptured to assure electrical access to the cell interior (whole-cell patch-configuration). Inward currents were measured upon application of 2.0 μM GABA to patch-clamped cells for 4 s. During the entire experiment the cells were voltage-clamped at a holding potential of −80 mV. For the analysis of test items, GABAA receptors were stimulated by 2.0 μM GABA and test item combinations described below. Thirty-second prewash steps with test items was performed in between two agonist applications. […]

[1] abbreviates: Ltk cells expressing GABAA α3β2γ2, 2.0 μM GABA, whole-cell, holding potential −80 mV.
Where [2] appears, read: Ltk cells expressing GABAA α3β2γ2, 2.0 μM GABA, whole-cell, holding potential −80 mV, read-out: EC50.

Read-outs that look alike come from different tables or passages of the source. Bounds are passed on as bounds.

T1 sequence (P34903 29-492): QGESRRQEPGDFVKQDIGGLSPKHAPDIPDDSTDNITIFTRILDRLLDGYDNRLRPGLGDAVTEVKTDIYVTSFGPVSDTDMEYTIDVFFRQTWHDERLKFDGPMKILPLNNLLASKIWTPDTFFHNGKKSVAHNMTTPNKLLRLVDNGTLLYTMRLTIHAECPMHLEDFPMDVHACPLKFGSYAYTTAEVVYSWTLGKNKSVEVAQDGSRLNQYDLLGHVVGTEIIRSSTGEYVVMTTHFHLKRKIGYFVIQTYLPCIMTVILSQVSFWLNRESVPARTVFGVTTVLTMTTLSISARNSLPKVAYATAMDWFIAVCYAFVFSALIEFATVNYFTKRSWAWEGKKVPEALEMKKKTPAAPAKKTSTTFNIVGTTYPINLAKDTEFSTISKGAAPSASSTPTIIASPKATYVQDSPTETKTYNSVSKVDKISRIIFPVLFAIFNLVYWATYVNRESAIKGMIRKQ
T1 sequence (P47870 25-512 partner limits assumed): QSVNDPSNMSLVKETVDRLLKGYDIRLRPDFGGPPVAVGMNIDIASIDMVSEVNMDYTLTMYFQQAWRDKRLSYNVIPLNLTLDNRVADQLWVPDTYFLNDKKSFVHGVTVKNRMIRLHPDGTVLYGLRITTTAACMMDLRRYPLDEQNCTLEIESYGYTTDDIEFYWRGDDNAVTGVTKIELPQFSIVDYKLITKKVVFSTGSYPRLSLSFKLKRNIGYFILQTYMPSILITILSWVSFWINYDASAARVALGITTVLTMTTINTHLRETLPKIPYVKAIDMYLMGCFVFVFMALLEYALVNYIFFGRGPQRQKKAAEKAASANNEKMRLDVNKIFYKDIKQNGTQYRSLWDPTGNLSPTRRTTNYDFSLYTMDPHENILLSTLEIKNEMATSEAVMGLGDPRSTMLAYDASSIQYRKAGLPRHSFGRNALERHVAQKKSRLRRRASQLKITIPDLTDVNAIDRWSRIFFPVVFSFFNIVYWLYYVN
T1 sequence (P18507 40-475): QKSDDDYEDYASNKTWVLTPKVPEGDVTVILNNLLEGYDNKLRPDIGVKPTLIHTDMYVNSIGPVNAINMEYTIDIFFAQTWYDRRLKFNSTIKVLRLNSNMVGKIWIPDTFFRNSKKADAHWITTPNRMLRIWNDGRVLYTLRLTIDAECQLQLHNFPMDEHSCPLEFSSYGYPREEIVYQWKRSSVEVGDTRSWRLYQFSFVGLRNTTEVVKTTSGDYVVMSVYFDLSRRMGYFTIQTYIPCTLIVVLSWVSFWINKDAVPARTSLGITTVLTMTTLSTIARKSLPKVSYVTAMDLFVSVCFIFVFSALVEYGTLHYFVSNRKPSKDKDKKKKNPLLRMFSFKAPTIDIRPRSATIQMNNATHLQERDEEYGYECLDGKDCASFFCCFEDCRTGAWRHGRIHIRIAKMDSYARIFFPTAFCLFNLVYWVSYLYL

For the compound `O=C(O)c1cn2c(n1)CN=C(c1ccccc1F)c1cc(Br)ccc1-2` [Compound 207, 8-bromo-6-(2-fluorophenyl)-4H-imidazo[1,2-a][1,4]benzodiazepine-2-carboxylic acid], the EC50 was below 0.05 µM. Under setting [1], the Emax was above 100%.
For `COCCOCCOCCOCCNC(=O)c1cn2c(n1)CN=C(c1ccccc1F)c1cc(Cl)ccc1-2` [Compound 211, 8-chloro-6-(2-fluorophenyl)-N-[2-[2-[2-(2-methoxyethoxy)ethoxy]ethoxy]ethyl]-4H-imidazo[1,2-a][1,4]benzodiazepine-2-carboxamide], the concentration for a half-maximal effect (EC50) is 0.05 to 0.1 µM. Moreover, under setting [1], the Emax is above 100%.
With `O=C(O)c1cn2c(n1)CN=C(c1ccc(F)cc1F)c1cc(Cl)ccc1-2` [Compound 216, 8-chloro-6-(2,4-difluorophenyl)-4H-imidazo[1,2-a][1,4]benzodiazepine-2-carboxylic acid], the Emax under setting [1] was below 50%.
`CC(C)CC1N=C(c2ccccc2F)c2cc(Cl)ccc2-n2cc(C(=O)O)nc21` (centres unmarked) [Compound 102, 8-chloro-6-(2-fluorophenyl)-4-isobutyl-4H-imidazo[1,2-a][1,4]benzodiazepine-2-carboxylic acid]: the Emax under setting [1] is 50 to 100%. Further, the EC50 under setting [2] was above 0.1 µM.
The corresponding values for `O=C(O[C@@H]1O[C@H](C(=O)O)[C@@H](O)[C@H](O)[C@H]1O)c1cn2c(n1)CN=C(c1ccccc1F)c1cc(Cl)ccc1-2` [Compound 234, (2S,3S,4S,5R,6S)-6-((8-chloro-6-(2-fluorophenyl)-4H-benzo[f]imidazo[1,2-a][1,4]diazepine-2-carbonyl)oxy)-3,4,5-trihydroxytetrahydro-2H-pyran-2-carboxylic acid] are 50 to 100% and below 0.05 µM.
Take `NC(=O)c1cn2c(n1)CN=C(c1ccccc1F)c1cc(Cl)ccc1-2` [Compound 238, 8-chloro-6-(2-fluorophenyl)-4H-imidazo[1,2-a][1,4] benzodiazepine-2-carboxamide]: the EC50 was below 0.05 µM. Moreover, the Emax under setting [1] was above 100%.
For `COc1cc2c(cc1Cl)C(c1ccccc1F)=NCc1nc(C(=O)O)cn1-2` [Compound 205, 8-chloro-6-(2-fluorophenyl)-9-methoxy-4H-imidazo[1,2-a][1,4]benzodiazepine-2-carboxylic acid], in that order: below 0.05 µM and above 100%.
For `O=C(O)c1cn2c(n1)CN=C(c1cccc(F)c1)c1cc(Cl)ccc1-2` [Compound 218, 8-chloro-6-(3-fluorophenyl)-4H-imidazo[1,2-a][1,4]benzodiazepine-2-carboxylic acid], in that order: above 0.1 µM and above 100%.
With `O=C(O)Cc1cn2c(n1)CN=C(c1ccccc1F)c1cc(Cl)ccc1-2` [Compound 233, 2-(8-chloro-6-(2-fluorophenyl)-4H-benzo[f]imidazo[1,2-a][1,4]diazepin-2-yl) acetic acid], the EC50 was below 0.05 µM. The Emax under setting [1] was above 100%.
Consider `CN(C)CCNC(=O)c1cn2c(n1)CN=C(c1ccccc1F)c1cc(Cl)ccc1-2` [Compound 228, 8-chloro-N-[2-(dimethylamino)ethyl]-6-(2-fluorophenyl)-4H-imidazo[1,2-a][1,4]benzodiazepine-2-carboxamide], for which the EC50 was below 0.05 µM. For the same compound, the Emax under setting [1] lay in the range of 50 to 100%.
The corresponding values for `CNC(=O)c1cn2c(n1)CN=C(c1ccccc1F)c1cc(Cl)ccc1-2` [Compound 240, 8-chloro-6-(2-fluorophenyl)-N-methyl-4H-imidazo[1,2-a][1,4]benzodiazepine-2-carboxamide] are below 0.05 µM and above 100%.
As to `O=C(O)c1cn2c(n1)CN=C(c1ccccc1Cl)c1cc(F)ccc1-2` [Compound 223], the EC50 is below 0.05 µM. Further, the Emax under setting [1] is below 50%.
`Nc1c(C(=O)O)nc2n1-c1ccc(Cl)cc1C(c1ccccc1F)=NC2` [Compound 249, 3-Amino-12-chloro-9-(2-fluorophenyl)-2,5,8-triazatricyclo[8.4.0.0^2,6]tetradeca-1 (10),3,5,8,11,13-hexaene-4-carboxylic acid]: under setting [1], the Emax was above 100%.
In the case of `O=C(O)c1cn2c(n1)CN=C(c1ccccc1F)c1cc(Cl)cc(F)c1-2` [Compound 203, 12-Chloro-14-fluoro-9-(2-fluorophenyl)-2,5,8-triazatricyclo[8.4.0.0^2,6] tetradeca-1 (10),3,5,8,11,13-hexaene-4-carboxylic acid], the EC50 was in the range of 0.05 to 0.1 µM. The Emax under setting [1] was in the range of 50 to 100%.
For `O=C(O)c1nc2n(c1C1CC1)-c1ccc(Cl)cc1C(c1ccccc1F)=NC2` [Compound 212, 8-chloro-1-cyclopropyl-6-(2-fluorophenyl)-4H-imidazo[1,2-a][1,4]benzodiazepine-2-carboxylic acid], in that order: above 0.1 µM and above 100%.
The corresponding values for `O=C(O)c1cn2c(n1)CN=C(c1ccccc1Cl)c1cc(Cl)ccc1-2` [Compound 220, 8-chloro-6-(2-chlorophenyl)-4H-imidazo[1,2-a][1,4]benzodiazepine-2-carboxylic acid] are below 0.05 µM and above 100%.
In the case of `O=C(O)c1cn2c(n1)CN=C(c1ccccc1F)c1cccc(Cl)c1-2` [Compound 224], the EC50 is above 0.1 µM. Besides, the Emax under setting [1] was below 50%.
`O=C(O)c1cn2c(n1)CN=C(c1ccc(F)cc1)c1cc(Cl)ccc1-2` [Compound 219, 8-chloro-6-(4-fluorophenyl)-4H-imidazo[1,2-a][1,4]benzodiazepine-2-carboxylic acid]: the Emax under setting [1] was in the range of 50 to 100%.
Turning to `O=C(O)c1cn2c(n1)CN=C(c1ccccc1Br)c1cc(Cl)ccc1-2` [Compound 206, 6-(2-bromophenyl)-8-chloro-4H-imidazo[1,2-a][1,4]benzodiazepine-2-carboxylic acid], the EC50 was below 0.05 µM. For the same compound, the Emax under setting [1] lay within 50 to 100%.
For `O=C(O)c1cn2c(n1)CN=C(c1ccccc1F)c1cc(F)ccc1-2` [Compound 221, 8-fluoro-6-(2-fluorophenyl)-4H-imidazo[1,2-a][1,4]benzodiazepine-2-carboxylic acid], the EC50 was 0.05 to 0.1 µM. The Emax under setting [1] is 50 to 100%.
For the compound `CP(C)(=O)CCCNC(=O)c1cn2c(n1)CN=C(c1ccccc1F)c1cc(Cl)ccc1-2` [Compound 209, 8-chloro-N-(3-dimethylphosphorylpropyl)-6-(2-fluorophenyl)-4H-imidazo[1,2-a][1,4]benzodiazepine-2-carboxamide], the EC50 was below 0.05 µM. The Emax under setting [1] was in the range of 50 to 100%.
For `O=C(O)c1cn2c(n1)CN=C(c1ccccc1F)c1cc(Cl)c(F)cc1-2` [Compound 201, 8-chloro-9-fluoro-6-(2-fluorophenyl)-4H-imidazo[1,2-a][1,4]benzodiazepine-2-carboxylic acid], in that order: below 0.05 µM and above 100%.
The corresponding values for `O=C(O)c1nc2n(c1CNC1CCCCC1)-c1ccc(Cl)cc1C(c1ccccc1F)=NC2` [Compound 244, 8-chloro-1-((cyclohexylamino)methyl)-6-(2-fluorophenyl)-4H-benzo[f]imidazo[1,2-a][1,4]diazepine-2-carboxylic acid] are above 0.1 µM and above 100%.
For `O=C(O)c1cn2c(n1)CN=C(c1ccccc1F)c1ccc(Cl)cc1-2` [Compound 225, 9-chloro-6-(2-fluorophenyl)-4H-imidazo[1,2-a][1,4]benzodiazepine-2-carboxylic acid], under setting [1], the Emax was below 50%.
